Experimental data reported in patent US20240082228A1, “SARS-COV-2 THERAPEUTICS” (priority 2021, published 2024).
Values joined by “and” are separate entries in the source; they are usually repeats but may differ in a detail not shown here. Equal entries are not always repeated. Where two headings read alike, the source gives them in different places.

What was measured:
SARS-CoV-2 = test: microbe, parasite or virus in culture; assay type: cell-based; conditions: for HIT: overall, 1 or 5 uM; for activity at 5 µM: Severe acute respiratory syndrome coronavirus 2, 5 uM, read-out: Normalized Infection (5 uM); for activity at 5 µM / activity at 1 µM: single replicate, relative to negative control DMSO; for activity at 1 µM: Severe acute respiratory syndrome coronavirus 2, 1 uM, read-out: Normalized Infection (1 uM)
[1] = for Average Cell Number (1 uM) / Cell Number (1 uM) / Normalized Cell Number (1 uM): compound at 1 uM; for Average Cell Number (1 uM) / Average Cell Number (5 uM): average of normalized cell number, n=3, relative to DMSO; for Average Cell Number (5 uM) / Cell Number (5 uM) / Normalized Cell Number (5 uM): compound at 5 uM; for Cell Number (5 uM) / Normalized Cell Number (5 uM) / Cell Number (1 uM) / Normalized Cell Number (1 uM): single replicate; for Cell Number (5 uM) / Cell Number (1 uM): raw cell count; for Normalized Cell Number (5 uM) / Normalized Cell Number (1 uM): relative to negative control DMSO
[2] = 1 uM, average log2FC infection (n=3) relative to DMSO
[3] = 5 uM, average log2FC infection (n=3) relative to DMSO

O=C(O)Cn1nnc(-c2cc(N3CCC(Oc4cc(F)ccc4Br)CC3)no2)n1 [MK-8245, mk-8245]
HIT (2 Std, 1 uM) (SARS-CoV-2; 1 uM): HIT
Average Infection (1 uM) (SARS-CoV-2; [2]): 0.7764
Average Infection (5 uM) (SARS-CoV-2; [3]): −0.05739
HIT (SARS-CoV-2): Yes
Toxic (1 uM) [1]: 0 (non-toxic (Normalized Cell number>0.65)
Toxic (5 uM) [1]: 0 (non-toxic (Normalized Cell number>0.65)
Average Cell Number (1 uM) [1]: 0.7263
Average Cell Number (5 uM) [1]: 0.9401
Cell Number (5 uM) [1]: 5812 and 4892 and 6009
Normalized Cell Number (5 uM) [1]: 0.9807 and 0.8255 and 1.014

CC1(C)S[C@@H]2[C@H](/N=C/N3CCCCCC3)C(=O)N2[C@H]1C(=O)O [Mecillinam, mecillinam]
HIT (2 Std, 1 uM) (SARS-CoV-2; 1 uM): HIT
Average Infection (1 uM) (SARS-CoV-2; [2]): −3.47
Average Infection (5 uM) (SARS-CoV-2; [3]): −0.06608
activity at 5 µM (SARS-CoV-2): 104%
HIT (SARS-CoV-2): Yes
Toxic (1 uM) [1]: 0 (non-toxic (Normalized Cell number>0.65)
Toxic (5 uM) [1]: 0 (non-toxic (Normalized Cell number>0.65)
Average Cell Number (1 uM) [1]: 1.097
Cell Number (1 uM) [1]: 6136 and 6699 and 6450
Normalized Cell Number (1 uM) [1]: 1.047 and 1.143 and 1.101
Average Cell Number (5 uM) [1]: 0.9928
Cell Number (5 uM) [1]: 6088 and 5755 and 5808
Normalized Cell Number (5 uM) [1]: 1.027 and 0.9711 and 0.9801

CN(C)[C@@H]1C(O)=C(C(N)=O)C(=O)[C@@]2(O)C(O)=C3C(=O)c4c(O)cccc4[C@@](C)(O)[C@H]3[C@H](O)[C@@H]12 [Oxytetracycline, oxytetracycline]
HIT (2 Std, 1 uM) (SARS-CoV-2; 1 uM): HIT
Average Infection (1 uM) (SARS-CoV-2; [2]): −0.4729
Average Infection (5 uM) (SARS-CoV-2; [3]): −0.1642
activity at 1 µM (SARS-CoV-2): 83.8%
HIT (SARS-CoV-2): Yes
Toxic (1 uM) [1]: 0 (non-toxic (Normalized Cell number>0.65)
Toxic (5 uM) [1]: 0 (non-toxic (Normalized Cell number>0.65)
Average Cell Number (1 uM) [1]: 0.8352
Cell Number (1 uM) [1]: 5031 and 4848 and 4803
Normalized Cell Number (1 uM) [1]: 0.8585 and 0.8273 and 0.8196
Average Cell Number (5 uM) [1]: 0.976
Cell Number (5 uM) [1]: 6014 and 5768 and 5570
Normalized Cell Number (5 uM) [1]: 1.015 and 0.9733 and 0.9399

N=C(N)c1ccc2nc(-c3cc(CC(=O)N[C@@H](CC(=O)O)C(=O)O)cc(-c4cc(S(N)(=O)=O)ccc4O)c3O)[nH]c2c1 [PCl 27483, pci-27483]
HIT (2 Std, 1 uM) (SARS-CoV-2; 1 uM): HIT
Average Infection (1 uM) (SARS-CoV-2; [2]): −0.6789
Average Infection (5 uM) (SARS-CoV-2; [3]): 0.006187
activity at 1 µM (SARS-CoV-2): 58%
activity at 5 µM (SARS-CoV-2): 104%
HIT (SARS-CoV-2): Yes
Toxic (1 uM) [1]: 0 (non-toxic (Normalized Cell number>0.65)
Toxic (5 uM) [1]: 0 (non-toxic (Normalized Cell number>0.65)
Average Cell Number (1 uM) [1]: 0.775
Cell Number (1 uM) [1]: 4643 and 4781 and 4200
Normalized Cell Number (1 uM) [1]: 0.7923 and 0.8159 and 0.7167
Average Cell Number (5 uM) [1]: 0.9439
Cell Number (5 uM) [1]: 5909 and 5702 and 5170
Normalized Cell Number (5 uM) [1]: 0.9971 and 0.9622 and 0.8724

CC(C)OC(=O)[C@H](C)N[P@](=O)(OC[C@H]1O[C@@H](n2ccc(=O)[nH]c2=O)[C@](C)(F)[C@@H]1O)Oc1ccccc1 [PSI-7977, Sofosbuvir]
Average Infection (1 uM) (SARS-CoV-2): −0.27
Average Infection (5 uM) (SARS-CoV-2): −0.4905
HIT (2 Stdv, 5 uM) (SARS-CoV-2; 5 uM): HIT
activity at 1 µM (SARS-CoV-2): 80.9%
activity at 5 µM (SARS-CoV-2): 70.5%
HIT (SARS-CoV-2): Yes
Toxic (1 uM) [1]: 0 (non-toxic (Normalized Cell number>0.65)
Toxic (5 uM) [1]: 0 (non-toxic (Normalized Cell number>0.65)
Average Cell Number (1 uM) [1]: 1.039
Cell Number (1 uM) [1]: 6209 and 5916 and 6135
Normalized Cell Number (1 uM) [1]: 1.06 and 1.01 and 1.047
Average Cell Number (5 uM) [1]: 0.991
Cell Number (5 uM) [1]: 5941 and 5681 and 5997
Normalized Cell Number (5 uM) [1]: 1.002 and 0.9586 and 1.012

CCC[C@H](N[C@@H](C)C(=O)N1[C@H](C(=O)O)C[C@@H]2CCCC[C@@H]21)C(=O)OCC [Perindopril, perindopril]
HIT (2 Std, 1 uM) (SARS-CoV-2; 1 uM): HIT
Average Infection (1 uM) (SARS-CoV-2; [2]): −0.8775
Average Infection (5 uM) (SARS-CoV-2; [3]): −0.1846
activity at 1 µM (SARS-CoV-2): 62.3%
activity at 5 µM (SARS-CoV-2): 96.4%
HIT (SARS-CoV-2): Yes
Toxic (1 uM) [1]: 0 (non-toxic (Normalized Cell number>0.65)
Toxic (5 uM) [1]: 0 (non-toxic (Normalized Cell number>0.65)
Average Cell Number (1 uM) [1]: 0.7365
Cell Number (1 uM) [1]: 4330 and 4259 and 4358
Normalized Cell Number (1 uM) [1]: 0.7389 and 0.7268 and 0.7437
Average Cell Number (5 uM) [1]: 0.9903
Cell Number (5 uM) [1]: 5734 and 6091 and 5782
Normalized Cell Number (5 uM) [1]: 0.9676 and 1.028 and 0.9757

CCCCC[C@H](O)/C=C/[C@@H]1[C@@H](C/C=C\CCCC(=O)O)[C@@H](O)C[C@H]1O [Prostagladin F2a, dinoprost]
HIT (2 Std, 1 uM) (SARS-CoV-2; 1 uM): HIT
Average Infection (1 uM) (SARS-CoV-2; [2]): −0.6806
Average Infection (5 uM) (SARS-CoV-2; [3]): −0.2282
activity at 1 µM (SARS-CoV-2): 58.9%
activity at 5 µM (SARS-CoV-2): 83.1%
HIT (SARS-CoV-2): Yes
Average Cell Number (1 uM) [1]: 0.8973
Normalized Cell Number (1 uM) [1]: 0.8613 and 0.9247 and 0.906
Average Cell Number (5 uM) [1]: 0.9858
Normalized Cell Number (5 uM) [1]: 0.988 and 0.9765 and 0.9929

Cc1cncc(CN2CCC(=C3c4ccc(Cl)cc4CCc4cccnc43)CC2)c1 [Rupatadine, rupatadine]
Average Infection (1 uM) (SARS-CoV-2): −0.7916
Average Infection (5 uM) (SARS-CoV-2): −0.09608
HIT (2 Std, 1 uM) (SARS-CoV-2; 1 uM): HIT
activity at 1 µM (SARS-CoV-2): 51.5%
activity at 5 µM (SARS-CoV-2): 88.1%
HIT (SARS-CoV-2): Yes
Toxic (1 uM) [1]: 0 (non-toxic (Normalized Cell number>0.65)
Toxic (5 uM) [1]: 0 (non-toxic (Normalized Cell number>0.65)
Average Cell Number (1 uM) [1]: 0.795
Cell Number (1 uM) [1]: 4468 and 4936 and 4572
Normalized Cell Number (1 uM) [1]: 0.7625 and 0.8423 and 0.7802
Average Cell Number (5 uM) [1]: 0.9184
Cell Number (5 uM) [1]: 5730 and 5462 and 5136
Normalized Cell Number (5 uM) [1]: 0.9669 and 0.9217 and 0.8667

C[C@@H]1CN(Cc2ccc(F)cc2)[C@@H](C)CN1C(=O)c1cc2c(C(=O)C(=O)N(C)C)cn(C)c2cc1Cl [SCIO 469, talmapimod]
HIT (2 Std, 1 uM) (SARS-CoV-2; 1 uM): HIT
Average Infection (1 uM) (SARS-CoV-2; [2]): −1.039
HIT (2 Stdv, 5 uM) (SARS-CoV-2; 5 uM): HIT
Average Infection (5 uM) (SARS-CoV-2; [3]): −0.8454
activity at 1 µM (SARS-CoV-2): 47.9%
activity at 5 µM (SARS-CoV-2): 57.5%
HIT (SARS-CoV-2): Yes
Toxic (1 uM) [1]: 0 (non-toxic (Normalized Cell number>0.65)
Toxic (5 uM) [1]: 0 (non-toxic (Normalized Cell number>0.65)
Average Cell Number (1 uM) [1]: 0.7439
Cell Number (1 uM) [1]: 3987 and 4564 and 4526
Normalized Cell Number (1 uM) [1]: 0.6804 and 0.7788 and 0.7724
Average Cell Number (5 uM) [1]: 0.95
Cell Number (5 uM) [1]: 5672 and 5345 and 5872
Normalized Cell Number (5 uM) [1]: 0.9571 and 0.9019 and 0.9909

COc1nc2ccc(Br)cc2cc1[C@@H](c1ccccc1)[C@@](O)(CCN(C)C)c1cccc2ccccc12 [TMC207, bedaquiline]
HIT (2 Std, 1 uM) (SARS-CoV-2; 1 uM): HIT
Average Infection (1 uM) (SARS-CoV-2; [2]): −0.3556
HIT (2 Stdv, 5 uM) (SARS-CoV-2; 5 uM): HIT
Average Infection (5 uM) (SARS-CoV-2; [3]): −0.559
activity at 1 µM (SARS-CoV-2): 72.7%
activity at 5 µM (SARS-CoV-2): 65.9%
HIT (SARS-CoV-2): Yes
Toxic (5 uM) [1]: 0 (non-toxic (Normalized Cell number>0.65)
Average Cell Number (1 uM) [1]: 0.6048
Cell Number (1 uM) [1]: 3465 and 3507 and 3661
Normalized Cell Number (1 uM) [1]: 0.5913 and 0.5985 and 0.6247
Average Cell Number (5 uM) [1]: 0.8191
Cell Number (5 uM) [1]: 5108 and 4528 and 4927
Normalized Cell Number (5 uM) [1]: 0.8619 and 0.7641 and 0.8314

CC(C(=O)O)c1ccc(C(=O)c2ccccc2)s1 (stereo not drawn) [Tiaprofenic Acid, tiaprofenic acid]
HIT (2 Std, 1 uM) (SARS-CoV-2; 1 uM): HIT
Average Infection (1 uM) (SARS-CoV-2; [2]): −0.4462
Average Infection (5 uM) (SARS-CoV-2; [3]): −0.06461
activity at 1 µM (SARS-CoV-2): 71.2%
HIT (SARS-CoV-2): Yes
Toxic (1 uM) [1]: 0 (non-toxic (Normalized Cell number>0.65)
Toxic (5 uM) [1]: 0 (non-toxic (Normalized Cell number>0.65)
Average Cell Number (1 uM) [1]: 0.8638
Cell Number (1 uM) [1]: 5511 and 5420 and 4255
Normalized Cell Number (1 uM) [1]: 0.9404 and 0.9249 and 0.7261
Average Cell Number (5 uM) [1]: 0.9679
Cell Number (5 uM) [1]: 6146 and 5679 and 5383
Normalized Cell Number (5 uM) [1]: 1.037 and 0.9583 and 0.9083
